Assay [1] concerns primary human colon epithelial cell monolayer. The assay is described as follows: Primary epithelial cell monolayer barrier integrity assay (IFN-γ, FITC-dextran). Conditions: for restoration of barrier integrity in the presence of IFN-γ: metabolites, starting at a concentration of about 5 mM.
Protocol: The assays were performed using a primary epithelial cell monolayer barrier integrity assay. […] The addition of interferon-gamma (IFN-γ) disrupts the tight junctions of the epithelial monolayer and induces apoptosis of epithelial cells. The leakiness of the membrane can be assessed by adding FITC-dextran to the apical side of the apparatus and measuring how rapidly it can pass to the basolateral compartment. A leaky monolayer will allow FITC-dextran to the basal side of the apparatus more quickly than a monolayer with an intact monolayer.
Briefly, the barrier integrity assay was conducted as follows. […] Colon organoids were harvested and trypsinized into a suspension containing few cell clusters and seeded onto Matrigel coated transwell inserts (Corning) at a density of 100,000 cells per insert in 50% L-WRN medium supplemented with 10 μM Y-27632 (Millipore Sigma). […] These primarily stem cell population was differentiated into colonocytes by switching the culture medium to 5% L-WRN for 48 hours. After 24 hours of differentiation, specific SCFA or 5% bacterial culture supernatant treatments were added to apical interface in 100 μL of 5% L-WRN medium and 5-25 ng/ml INFγ (Peprotech), depending on the experiment, was added in 175 μL of 5% L-WRN medium to the basolateral interface and incubated for 48 hours at 37° C. After the 48 hour incubation, colonic epithelial monolayer permeability was assessed by adding 10 μL of 10 ng/ml FITC-Dextran (4 kDa, Sigma) to the apical interface, the organoids were incubated for 1 hour and then 100 μL of medium was collected from the basolateral compartment of each transwell and transferred to a 96 well plate for fluorescence detection.
In assay [2] the test system is HT29 cells. The assay is described as follows: Anti-inflammatory assay in IECs: TNF-α-driven IL-8 secretion by HT29 cells. Format: cell-based, human. Conditions: metabolites.
The subject of assay [3] is HDAC enzymes (HeLa nuclear extract). Put plainly: HDAC inhibition assay of bacterial supernatants (HDAC-Glo I/II, HeLa nuclear extract). Format: biochemical.
Assay [4] in a line: GC-MS of short-, medium- and branched-chain fatty acids in supernatants. Conditions: single strain supernatants. An excerpt: FIG. 18 provides a table listing bacterial species and the short chain fatty acids (SCFAs), medium chain fatty acids (MCFAs), and branched chain fatty acids (BCFAs) produced by each of the species. […] The limit of detection for each of the fatty acids is provided in the row labeled “Limit of Detection (LOD).” The SCFAs measured included: acetic acid, propanoic acid, and butanoic acid. The MCFAs measured included: pentanoic acid, hexanoic acid, heptanoic acid. The BCFAs measured included: 2-methyl-propanopic acid, 3-methyl-butanoic acid, and 4-methyl-pentaoic acid.
As described supra, certain tryptophan (Trp) metabolites were associated with remission in patients treated with an HHSP. Accordingly, Applicant tested various bacterial species for the presence of SCFA or tryptophan metabolites in their supernatants. The presence of the tryptophan metabolites was determined using a colorimetric assay for detection of indolic compounds (Indole Reagent, Anaerob Systems). Indole produces a light blue color in this assay, while other Trp metabolites produce purple color. The presence of SCFAs were tested using the HDAC assay (described supra). Supernatants of selected strains that were identified as producers of Trp metabolites by the colorimetric indole assay, and/or producers of SCFAs by the HDAC assay were further analyzed by GC-MS to identify the specific metabolites produced.

Read-outs that look alike come from different tables or passages of the source.

Consider `O=C(O)CCc1c[nH]c2ccccc12` [3-indolepropionic acid], for which the “restoration of barrier integrity in the presence of IFN-γ” value in assay [1] is “restored barrier integrity”. Turning to `CC(=O)O` [acetate], in assay [2], the “TNF-α-dependent IL-8 secretion” value is “reduced levels of TNF-α-dependent IL-8 secretion”. `CCCC(=O)O` [butyrate]: the decrease of permeability in assay [1] (5 mM, positive control) worked out at 50%. Take `CCC(=O)O` [propionate]: the “TNF-α-dependent IL-8 secretion” value in assay [2] is “reduced levels of TNF-α-dependent IL-8 secretion”. In assay [1], the “restoration of barrier integrity in the presence of IFN-γ” value is “restored barrier integrity”. Clostridium clostridioforme: in assay [3], the HDAC cluster assignment was determined as 6.

The compound Clostridium disporicum gave an HDAC cluster assignment in assay [3] of 0.

On to Clostridium glycolicum, for which the hexanoate production result in assay [4] is on record as “Hexanoate producing”.

On to Clostridium mayombei, for which, in assay [3], the HDAC cluster assignment was 2. On to Clostridium sp 7 2 43FAA, for which the HDAC cluster assignment in assay [3] (pattern of HDAC inhibition across nutrient sources) is reported as 5. In addition, in assay [3] (supernatants of strains grown in PY medium with one of seven C sources at 0.5%), the “HDAC Inhibition in any C source (25/18% cutoff)” value was 1 (If a strain exhibits HDACi activity of at least 0.25 in any nutrient, or 0.18 in fucose, it is considered to have HDACi activity and it is marked with “1”). The compound Clostridium tertium had an HDAC cluster assignment in assay [3] of 5. For the compound Parabacteroides distasonis, in assay [3], the HDAC cluster assignment is reported as 3.

Source of the values: US20210196766A1, “DESIGNED BACTERIAL COMPOSITIONS AND USES THEREOF” (Seres Therapeutics, Inc., priority 2019, published 2021).
